{"source": "the NIST ThermoML archive (doi:10.1021/je800940j)", "key": {"[1]": {"test": "xn = mol fraction of the nth substance listed", "settings": "Liquid; for viscosity: Concentric cylinders viscometry"}, "[2]": {"settings": "101 kPa, Liquid"}, "[3]": {"settings": "283.15 K, 101.3 kPa, x1 = 0.4106"}, "[4]": {"settings": "293.15 K, 101.3 kPa, x1 = 0.4106"}, "[5]": {"settings": "303.15 K, 101.3 kPa, x1 = 0.4106"}, "[6]": {"settings": "313.15 K, 101.3 kPa, x1 = 0.4106"}, "[7]": {"settings": "323.15 K, 101.3 kPa, x1 = 0.4106"}}, "note": "Numbers after ± are expanded uncertainties.", "data": [{"smiles": "C1CC[C@H]2CCCC[C@H]2C1", "note": "[cis-decahydronaphthalene] + C1CC[C@H]2CCCC[C@@H]2C1", "values": [{"measurement": "viscosity", "setting": "[1]; [3]", "result": "3.097 ± 0.023", "unit": "mPa·s"}, {"measurement": "mass density", "setting": "[1]; [3]", "result": "887.8 ± 0.47", "unit": "kg/m3"}, {"measurement": "viscosity", "setting": "[1]; [4]", "result": "2.504 ± 0.019", "unit": "mPa·s"}, {"measurement": "mass density", "setting": "[1]; [4]", "result": "880.25 ± 0.48", "unit": "kg/m3"}, {"measurement": "viscosity", "setting": "[1]; [5]", "result": "2.066 ± 0.016", "unit": "mPa·s"}, {"measurement": "mass density", "setting": "[1]; [5]", "result": "872.7 ± 0.5", "unit": "kg/m3"}, {"measurement": "viscosity", "setting": "[1]; [6]", "result": "1.734 ± 0.014", "unit": "mPa·s"}, {"measurement": "mass density", "setting": "[1]; [6]", "result": "865.15 ± 0.52", "unit": "kg/m3"}, {"measurement": "viscosity", "setting": "[1]; [7]", "result": "1.477 ± 0.013", "unit": "mPa·s"}, {"measurement": "mass density", "setting": "[1]; [7]", "result": "857.65 ± 0.53", "unit": "kg/m3"}]}, {"smiles": "C1CCCCC1", "note": "[cyclohexane]", "values": [{"measurement": "mass density", "setting": "[2]; 283.15 K", "result": "787.95 ± 0.81", "unit": "kg/m3"}, {"measurement": "viscosity", "setting": "[2]; 283.15 K, Concentric cylinders viscometry", "result": "1.18 ± 0.011", "unit": "mPa·s"}, {"measurement": "mass density", "setting": "[2]; 293.15 K", "result": "778.7 ± 0.83", "unit": "kg/m3"}, {"measurement": "viscosity", "setting": "[2]; 293.15 K, Concentric cylinders viscometry", "result": "0.9847 ± 0.01", "unit": "mPa·s"}, {"measurement": "mass density", "setting": "[2]; 303.15 K", "result": "769.2 ± 0.84", "unit": "kg/m3"}, {"measurement": "viscosity", "setting": "[2]; 303.15 K, Concentric cylinders viscometry", "result": "0.8295 ± 0.0093", "unit": "mPa·s"}, {"measurement": "mass density", "setting": "[2]; 313.15 K", "result": "759.65 ± 0.86", "unit": "kg/m3"}, {"measurement": "viscosity", "setting": "[2]; 313.15 K, Concentric cylinders viscometry", "result": "0.7061 ± 0.0086", "unit": "mPa·s"}, {"measurement": "mass density", "setting": "[2]; 323.15 K", "result": "749.9 ± 0.88", "unit": "kg/m3"}, {"measurement": "viscosity", "setting": "[2]; 323.15 K, Concentric cylinders viscometry", "result": "0.5978 ± 0.008", "unit": "mPa·s"}]}, {"smiles": "Cc1ccccc1", "note": "[toluene]", "values": [{"measurement": "mass density", "setting": "[2]; 283.15 K", "result": "876.1 ± 0.63", "unit": "kg/m3"}, {"measurement": "viscosity", "setting": "[2]; 283.15 K, Automatic viscometer", "result": "0.6657 ± 0.0033", "unit": "mPa·s"}, {"measurement": "mass density", "setting": "[2]; 293.15 K", "result": "866.75 ± 0.65", "unit": "kg/m3"}, {"measurement": "viscosity", "setting": "[2]; 293.15 K, Automatic viscometer", "result": "0.5958 ± 0.003", "unit": "mPa·s"}, {"measurement": "mass density", "setting": "[2]; 303.15 K", "result": "857.48 ± 0.67", "unit": "kg/m3"}, {"measurement": "viscosity", "setting": "[2]; 303.15 K, Automatic viscometer", "result": "0.5368 ± 0.0027", "unit": "mPa·s"}, {"measurement": "mass density", "setting": "[2]; 313.15 K", "result": "848.08 ± 0.68", "unit": "kg/m3"}, {"measurement": "viscosity", "setting": "[2]; 313.15 K, Automatic viscometer", "result": "0.4859 ± 0.0024", "unit": "mPa·s"}, {"measurement": "mass density", "setting": "[2]; 323.15 K", "result": "838.7 ± 0.7", "unit": "kg/m3"}, {"measurement": "viscosity", "setting": "[2]; 323.15 K, Automatic viscometer", "result": "0.4408 ± 0.0022", "unit": "mPa·s"}]}, {"smiles": "Cc1ccccc1", "note": "[toluene] + C1CCCCC1", "values": [{"measurement": "viscosity", "setting": "[1]; 283.15 K, 101 kPa, x2 = 0", "result": "0.6657 ± 0.0084", "unit": "mPa·s"}, {"measurement": "mass density", "setting": "[1]; 283.15 K, 101 kPa, x2 = 0", "result": "876.1 ± 0.63", "unit": "kg/m3"}, {"measurement": "viscosity", "setting": "[1]; 293.15 K, 101 kPa, x2 = 0", "result": "0.5958 ± 0.008", "unit": "mPa·s"}, {"measurement": "mass density", "setting": "[1]; 293.15 K, 101 kPa, x2 = 0", "result": "866.75 ± 0.65", "unit": "kg/m3"}, {"measurement": "viscosity", "setting": "[1]; 303.15 K, 101 kPa, x2 = 0", "result": "0.5368 ± 0.0076", "unit": "mPa·s"}, {"measurement": "mass density", "setting": "[1]; 303.15 K, 101 kPa, x2 = 0", "result": "857.48 ± 0.67", "unit": "kg/m3"}, {"measurement": "viscosity", "setting": "[1]; 313.15 K, 101 kPa, x2 = 0", "result": "0.4859 ± 0.0074", "unit": "mPa·s"}, {"measurement": "mass density", "setting": "[1]; 313.15 K, 101 kPa, x2 = 0", "result": "848.08 ± 0.68", "unit": "kg/m3"}, {"measurement": "viscosity", "setting": "[1]; 323.15 K, 101 kPa, x2 = 0", "result": "0.4408 ± 0.0071", "unit": "mPa·s"}, {"measurement": "mass density", "setting": "[1]; 323.15 K, 101 kPa, x2 = 0", "result": "838.7 ± 0.7", "unit": "kg/m3"}]}]}
